As a reminder, the kinetic solubility is the concentration staying in solution when a stock, usually in DMSO, is diluted into the medium.

Converted amounts (≈) assume the structure as drawn. Bounds are passed on as bounds.

For this series the following is noted: buffer; pH 7.4; 200.0 µM.
With `Cc1ccc(C)c(OCCC(=O)OCC(=O)NCc2ccc(F)cc2)c1`, the kinetic solubility amounted to 3.7 µg/mL (≈ 10.3 µM).
`COc1ccccc1CNC(=O)C(CCSC)NC(=O)c1cccc(S(=O)(=O)N2CCOCC2)c1` (stereo not given): the solubility (kinetic) was found to be 3.4 µg/mL (≈ 6.52 µM).
Molecule `Cc1cc(NC(=O)CSc2cc(C)c3ccccc3n2)no1` registered a kinetic solubility of 2.2 µg/mL (≈ 7.02 µM).
Consider `C=CCOc1ccccc1CN1CCC(Cc2ccccc2)CC1`, for which the kinetic solubility was 31.7 µg/mL (≈ 98.6 µM).
As to `COc1ccc(S(=O)(=O)Nc2c(C)nn(C)c2C)cc1Br`, the kinetic solubility is more than 56.1 µg/mL.
For the molecule `CC(C)C(OC(=O)c1cccs1)C(=O)NCc1ccc(F)cc1` (stereo not given), the kinetic solubility was more than 50.3 µg/mL.
For the molecule `COc1cc(Nc2ccc(S(N)(=O)=O)cc2)c([N+](=O)[O-])nc1[N+](=O)[O-]`, the kinetic solubility was determined as 3.8 µg/mL (≈ 10.3 µM).
In the case of `Cn1cnc(S(=O)(=O)Nc2ccc(OC(F)F)cc2)c1` it was more than 45.5 µg/mL; in that of `Cc1cc(=O)[nH]c(SCc2ccc(Cl)cc2)n1`, 13.2 µg/mL (≈ 49.5 µM); in that of `O/N=C/c1ccnc(SCc2ccccc2)n1`, 31.4 µg/mL (≈ 128 µM).
For `CCCCn1c(N)c(C(=O)NCc2cccs2)c2nc3ccccc3nc21`, the kinetic solubility came to 1.6 µg/mL (≈ 4.22 µM). Against the preceding molecule, the solubility kinetic is about 20-fold lower.
In the case of `O=C(COC(=O)c1cc(S(=O)(=O)N2CCOCC2)c(Cl)cc1Cl)NCc1ccco1` it was more than 71.6 µg/mL; in that of `O=C(NCc1csc2ccccc12)Nc1cc(Cl)cc(Cl)c1`, 2.1 µg/mL (≈ 5.98 µM).
In the case of `Cc1ccc(NC(=O)C(=O)NCCCN2CCOCC2)c(C)c1` it was more than 47.9 µg/mL; in that of `CN1CCN(C(=O)CNC(=O)c2cccs2)CC1`, more than 40.1 µg/mL; in that of `COc1ccc(C2(CNC(=O)c3ccc(N)cc3)CCCC2)cc1`, 26.7 µg/mL (≈ 82.3 µM).
On to `O=C(CNC(=O)c1ccco1)OCc1ccc(Br)cc1`, for which the kinetic solubility was 40.5 µg/mL (≈ 120 µM).
In the case of `CN1CCCC(OC(=O)c2ccc(C#N)cc2)C1.Cl` (stereo not given) it was more than 42.1 µg/mL.
In the case of `Cc1ccc2c(CC(=O)N3CCN(c4ccccc4)CC3)coc2c1` it was 8.1 µg/mL (≈ 24.2 µM); in that of `COC(=O)c1cc(C(=O)c2cc(Cl)ccc2O)coc1=N`, 41.9 µg/mL (≈ 136 µM); in that of `O=S(=O)(N1CCOCC1)N1CCOCC1`, more than 35.4 µg/mL.
The molecule `COc1ccc(NC(=O)c2ccccc2NC(=O)c2cccs2)cc1` registered a solubility (kinetic) of less than 0.4 µg/mL.
The molecule `NC(=O)Cn1nc([N+](=O)[O-])nc1Oc1ccccc1F` displayed a kinetic solubility of more than 42.2 µg/mL.
For the molecule `Cc1nc(Cl)c(C(=O)NCCc2ccccc2)c(C)c1[N+](=O)[O-]`, the kinetic solubility is 3.5 µg/mL (≈ 10.5 µM).
Take `C=CCN1C(=O)C(=O)N(CC(=O)NCC(=O)Nc2ccc(F)c(F)c2F)C1=O`: the kinetic solubility is more than 59.7 µg/mL.
Molecule `O=C1C2C3c4ccccc4C(c4ccccc43)[C@@H]2C(=O)N1c1ccccn1` (stereo not given in full) displayed a kinetic solubility of 2.9 µg/mL (≈ 8.23 µM).
Turning to `O=C(N[C@@H](Cc1ccccc1)C(=O)N1CCN(S(=O)(=O)c2ccccc2F)CC1)c1ccco1`, the kinetic solubility stood at 23.7 µg/mL (≈ 48.8 µM).
In the case of `Cc1ccc(NC(=O)CCC(=O)N2CCC(C)CC2)c([N+](=O)[O-])c1` it was more than 50 µg/mL; in that of `O=C(c1ccc(-c2cccc(Cl)c2Cl)o1)N1CCOCC1`, 47.1 µg/mL (≈ 144 µM); in that of `CN1C(=O)CN=C(c2ccccc2Cl)c2cc(Br)ccc21`, 51.9 µg/mL (≈ 143 µM).
As to `CCCC1(CCC)NC(=O)N(CC(=O)Nc2ccc3c(c2)OCCO3)C1=O`, the kinetic solubility is more than 56.3 µg/mL.
In the case of `O=C(NCc1cccc(Cl)c1)NC(=O)c1csc([N+](=O)[O-])c1` it was less than 0.2 µg/mL.
In the case of `O=c1[nH]cnc2c1c(-c1ccccc1)cn2-c1ccccc1` it was less than 0.2 µg/mL; in that of `CCCCNC(=O)/C(=C/c1ccco1)NC(=O)c1ccco1`, 37.7 µg/mL (≈ 125 µM).
With `O=C(Cc1cccs1)NCc1ccc(Cl)cc1`, the kinetic solubility was 23.5 µg/mL (≈ 88.4 µM).
Molecule `CN(C)C(=O)COc1ncnc2scc(-c3ccc(F)cc3)c12` returned a solubility (kinetic) of 45.8 µg/mL (≈ 138 µM).
As to `Cc1cc(C)c2sc(C)[n+](CCCS(=O)(=O)[O-])c2c1`, the solubility (kinetic) was found to be 38.8 µg/mL (≈ 130 µM).
For the molecule `CCCOc1ccc2nc(C)c(CCC)c(SC(=N)N)c2c1.Cl`, the solubility (kinetic) was 33 µg/mL.
`COc1ccccc1CC(=O)Nc1ccc2c(c1)OC1(CCCC1)O2` showed a kinetic solubility of 35.7 µg/mL (≈ 105 µM).
In turn, `Cc1ccc(NC(=O)C2C3CCC(O3)C2C(=O)O)cc1Cl` (stereo not given) returned a solubility (kinetic) of 27.8 µg/mL (≈ 89.8 µM).
`Nc1nc(NCc2ccco2)nc(Nc2ccccc2)c1[N+](=O)[O-]` returned a kinetic solubility of 0.4 µg/mL (≈ 1.23 µM).
As to `CCCCOc1ccc(Cn2c(=O)oc3ccccc32)cc1`, the solubility (kinetic) is less than 0.6 µg/mL.
Regarding `Cc1ccc(S(=O)(=O)N(C)c2ccc(OCC(=O)OCc3ccc(C#N)cc3)cc2)cc1`, the solubility (kinetic) is 8.4 µg/mL (≈ 18.6 µM).
`Cc1ccc(S(=O)(=O)N2CCCCC2c2cccnc2)c(C)c1C` (stereo not given) returned a solubility (kinetic) of 45.9 µg/mL (≈ 133 µM).
Turning to `CCN(CC)C(=O)COCc1cc(-c2ccc3c(c2)OCO3)on1`, the kinetic solubility is more than 49.9 µg/mL.
In turn, `O=C(NCCCCNC(=O)C(F)(F)F)C(F)(F)F` gave a solubility (kinetic) of more than 42 µg/mL.
Molecule `CN1CCCN(C(=O)COc2ccccc2)CC1` came in with a kinetic solubility of more than 37.2 µg/mL.
In the case of `COc1ccc(Nc2ncnc3sc(C)cc23)c(OC)c1.Cl` it was more than 50.7 µg/mL; in that of `O=C(O)c1cccc(N2C(=O)c3cccc4cccc(c34)C2=O)c1`, more than 47.6 µg/mL; in that of `COc1ccc(NS(=O)(=O)c2cc(NC(=O)c3ccc(S(=O)(=O)N(C)C)cc3)ccc2N2CCOCC2)cc1`, 3.2 µg/mL (≈ 5.57 µM).
